Assay: Apparent permeability across apical to basolateral side of dog MDCK cells at 50 uM measured every 15 mins for 1.5 hrs by LC-MS/MS analysis
Type: ADME, cell-based, Canis lupus familiaris

COCCc1ccc(OCC(O)CNC(C)C)cc1 (stereo unspecified) [METOPROLOL]
Papp A→B at 1.5 h, 50 µM: 15.6 ×10⁻⁶ cm/s
